Assay results reported in patent US6608086B2, “Dihydropyridines and new uses thereof” (Synaptic Pharmaceutical Corporation, priority 1993, dated 2003).
Where a name gives a salt, the structure may show the parent alone. Read-outs that look alike come from different tables or passages of the source.

Legend:
[1] = target: T1, α1A Human Adrenergic Receptor (Homo sapiens, UniProt P25100); assay: Radioligand binding, [3H]prazosin, cloned human α1A adrenergic receptor
T1 construct: The entire coding region of α1A (1719 bp); expressed in transfected cells
T1 sequence (P25100 1-572): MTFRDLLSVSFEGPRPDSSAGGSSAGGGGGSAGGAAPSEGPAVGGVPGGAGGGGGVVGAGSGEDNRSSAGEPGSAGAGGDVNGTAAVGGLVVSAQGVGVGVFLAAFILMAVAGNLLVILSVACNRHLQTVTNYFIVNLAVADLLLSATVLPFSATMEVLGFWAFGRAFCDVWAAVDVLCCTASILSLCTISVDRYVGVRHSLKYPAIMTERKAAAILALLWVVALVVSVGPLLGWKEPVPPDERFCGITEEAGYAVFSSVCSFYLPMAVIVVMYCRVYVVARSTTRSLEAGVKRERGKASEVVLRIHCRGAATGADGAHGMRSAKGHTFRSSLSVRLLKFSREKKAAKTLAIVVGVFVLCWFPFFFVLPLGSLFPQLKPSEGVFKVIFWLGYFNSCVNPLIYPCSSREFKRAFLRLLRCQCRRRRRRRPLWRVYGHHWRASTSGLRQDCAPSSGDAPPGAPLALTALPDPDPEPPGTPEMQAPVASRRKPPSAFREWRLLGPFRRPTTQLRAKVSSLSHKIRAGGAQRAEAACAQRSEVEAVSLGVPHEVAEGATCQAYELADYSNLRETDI
Method in brief: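 Filter-bound radioactivity measured [3H]prazosin (0.5 nM) binding to membranes of LM(tk−) cells expressing the human α1A receptor after 20 min at 37° C. Phentolamine at 10 μM set nonspecific binding.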

[2] = target: T2, α1C Human Adrenergic Receptor (Homo sapiens, UniProt P35348); assay: Radioligand binding, [3H]prazosin, cloned human α1C adrenergic receptor
T2 construct: The entire coding region of α1C (1401 bp); expressed in transfected cells
T2 sequence (P35348 1-466): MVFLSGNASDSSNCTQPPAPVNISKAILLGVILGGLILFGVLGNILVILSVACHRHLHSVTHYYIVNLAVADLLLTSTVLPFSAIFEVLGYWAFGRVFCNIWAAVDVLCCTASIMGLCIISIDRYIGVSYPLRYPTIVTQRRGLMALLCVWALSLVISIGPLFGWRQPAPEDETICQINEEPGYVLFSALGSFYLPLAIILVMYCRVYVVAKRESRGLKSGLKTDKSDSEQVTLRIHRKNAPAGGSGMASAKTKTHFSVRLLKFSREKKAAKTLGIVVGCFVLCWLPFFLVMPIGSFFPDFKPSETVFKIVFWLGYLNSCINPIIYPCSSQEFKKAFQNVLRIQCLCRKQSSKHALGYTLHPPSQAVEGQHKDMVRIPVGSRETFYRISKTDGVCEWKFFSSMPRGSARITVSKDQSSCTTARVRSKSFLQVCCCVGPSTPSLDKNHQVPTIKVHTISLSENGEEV
Method in brief: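 Stably transfected mouse LM(tk−) fibroblast membranes bearing the cloned human α1C adrenoceptor served as receptor source. Specific binding was taken as the portion of 0.5 nM [3H]prazosin displaceable by 10 μM phentolamine after 20 min at 37° C., pH 7.5, in Mg2+/ascorbate-containing Tris buffer.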

[3] = target: T3, L-type calcium channel (Rattus norvegicus, UniProt P22002); assay: Competition binding of [3H]nitrendipine to membrane fragments of rat cardiac muscle
T3 construct: membrane fragments of rat cardiac muscle; from tissue; host or cells: rat cardiac muscle membranes
T3 sequence (P22002 whole entry, other chains not shown, the tested form may be a part): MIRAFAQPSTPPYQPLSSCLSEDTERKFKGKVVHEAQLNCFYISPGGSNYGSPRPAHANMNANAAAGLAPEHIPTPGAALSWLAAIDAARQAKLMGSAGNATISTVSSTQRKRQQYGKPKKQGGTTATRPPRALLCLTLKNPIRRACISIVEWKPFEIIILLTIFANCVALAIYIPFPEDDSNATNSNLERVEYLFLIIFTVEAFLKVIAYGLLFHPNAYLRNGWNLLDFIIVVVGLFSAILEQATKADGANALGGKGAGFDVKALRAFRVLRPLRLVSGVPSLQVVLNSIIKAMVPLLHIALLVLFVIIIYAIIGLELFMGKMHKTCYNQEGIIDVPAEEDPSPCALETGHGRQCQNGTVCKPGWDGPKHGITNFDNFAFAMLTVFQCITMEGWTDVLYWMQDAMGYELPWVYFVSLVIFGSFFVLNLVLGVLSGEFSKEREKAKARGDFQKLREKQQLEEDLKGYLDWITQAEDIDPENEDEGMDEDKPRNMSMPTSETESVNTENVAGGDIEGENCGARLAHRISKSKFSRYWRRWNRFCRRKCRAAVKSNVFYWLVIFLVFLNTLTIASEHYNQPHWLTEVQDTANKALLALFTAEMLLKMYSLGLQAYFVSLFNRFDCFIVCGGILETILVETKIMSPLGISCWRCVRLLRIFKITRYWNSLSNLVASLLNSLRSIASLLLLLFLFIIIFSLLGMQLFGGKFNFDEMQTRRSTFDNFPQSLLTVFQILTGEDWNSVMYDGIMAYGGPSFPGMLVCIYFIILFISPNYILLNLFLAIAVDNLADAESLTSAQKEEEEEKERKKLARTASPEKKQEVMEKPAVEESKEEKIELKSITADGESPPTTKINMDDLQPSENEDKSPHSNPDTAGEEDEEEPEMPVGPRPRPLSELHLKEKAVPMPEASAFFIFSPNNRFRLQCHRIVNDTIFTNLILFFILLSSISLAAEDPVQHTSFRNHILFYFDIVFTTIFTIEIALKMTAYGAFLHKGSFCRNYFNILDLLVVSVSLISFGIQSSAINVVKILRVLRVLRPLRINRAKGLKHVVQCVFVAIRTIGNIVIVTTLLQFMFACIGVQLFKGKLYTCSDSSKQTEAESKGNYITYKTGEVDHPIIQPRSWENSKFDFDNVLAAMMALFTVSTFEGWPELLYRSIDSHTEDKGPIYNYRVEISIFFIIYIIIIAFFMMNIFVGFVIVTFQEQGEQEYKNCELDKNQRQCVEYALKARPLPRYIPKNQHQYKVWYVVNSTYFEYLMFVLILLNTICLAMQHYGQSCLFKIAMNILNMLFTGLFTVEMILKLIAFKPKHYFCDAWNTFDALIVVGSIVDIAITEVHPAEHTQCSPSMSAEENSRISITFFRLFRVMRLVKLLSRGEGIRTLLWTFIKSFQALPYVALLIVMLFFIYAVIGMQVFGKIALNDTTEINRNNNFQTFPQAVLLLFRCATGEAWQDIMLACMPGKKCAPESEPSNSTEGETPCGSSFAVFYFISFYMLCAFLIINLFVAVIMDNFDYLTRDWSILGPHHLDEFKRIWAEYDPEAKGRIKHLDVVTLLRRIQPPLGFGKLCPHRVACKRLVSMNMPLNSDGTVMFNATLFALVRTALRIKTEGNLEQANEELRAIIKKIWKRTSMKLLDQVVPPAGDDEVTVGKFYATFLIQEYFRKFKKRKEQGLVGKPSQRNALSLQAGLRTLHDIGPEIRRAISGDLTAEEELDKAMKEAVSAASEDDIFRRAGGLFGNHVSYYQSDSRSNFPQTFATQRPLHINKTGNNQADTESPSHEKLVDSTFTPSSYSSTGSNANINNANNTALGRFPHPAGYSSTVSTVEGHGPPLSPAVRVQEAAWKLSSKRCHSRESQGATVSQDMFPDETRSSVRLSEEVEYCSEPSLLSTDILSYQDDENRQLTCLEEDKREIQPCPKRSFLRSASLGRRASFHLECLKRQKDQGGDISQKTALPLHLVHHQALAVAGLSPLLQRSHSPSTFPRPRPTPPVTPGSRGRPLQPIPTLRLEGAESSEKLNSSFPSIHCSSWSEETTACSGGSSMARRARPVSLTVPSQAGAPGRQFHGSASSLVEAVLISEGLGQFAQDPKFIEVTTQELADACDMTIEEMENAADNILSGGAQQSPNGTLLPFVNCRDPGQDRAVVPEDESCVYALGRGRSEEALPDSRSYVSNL
T3 sequence (P54290 25-944 partner limits assumed, other chains not shown): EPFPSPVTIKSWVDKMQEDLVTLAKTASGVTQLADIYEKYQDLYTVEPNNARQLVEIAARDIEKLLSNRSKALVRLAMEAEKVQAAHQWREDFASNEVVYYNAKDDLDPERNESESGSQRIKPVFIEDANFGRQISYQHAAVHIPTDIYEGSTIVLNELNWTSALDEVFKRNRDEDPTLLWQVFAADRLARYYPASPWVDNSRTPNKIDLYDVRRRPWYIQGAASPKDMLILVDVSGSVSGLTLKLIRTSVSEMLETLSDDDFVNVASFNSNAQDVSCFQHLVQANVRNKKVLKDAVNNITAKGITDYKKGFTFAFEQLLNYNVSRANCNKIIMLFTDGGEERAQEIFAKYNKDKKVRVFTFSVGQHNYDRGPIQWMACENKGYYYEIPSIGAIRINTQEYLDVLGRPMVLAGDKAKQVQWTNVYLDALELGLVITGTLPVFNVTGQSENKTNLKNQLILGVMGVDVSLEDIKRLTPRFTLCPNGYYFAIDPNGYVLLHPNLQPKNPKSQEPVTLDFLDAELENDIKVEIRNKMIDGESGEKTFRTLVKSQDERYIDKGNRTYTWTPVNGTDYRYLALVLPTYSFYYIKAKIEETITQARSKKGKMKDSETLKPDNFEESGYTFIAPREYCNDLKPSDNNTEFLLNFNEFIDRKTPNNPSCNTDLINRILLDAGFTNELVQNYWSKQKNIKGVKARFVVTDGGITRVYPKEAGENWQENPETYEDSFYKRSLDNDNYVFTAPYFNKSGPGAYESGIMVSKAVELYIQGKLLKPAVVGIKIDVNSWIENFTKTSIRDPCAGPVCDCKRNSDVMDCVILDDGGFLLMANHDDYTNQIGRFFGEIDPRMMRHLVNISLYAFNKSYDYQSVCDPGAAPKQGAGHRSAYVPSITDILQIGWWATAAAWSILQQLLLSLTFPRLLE
T3 sequence (P54290 945-1091 partner limits assumed, other chains not shown): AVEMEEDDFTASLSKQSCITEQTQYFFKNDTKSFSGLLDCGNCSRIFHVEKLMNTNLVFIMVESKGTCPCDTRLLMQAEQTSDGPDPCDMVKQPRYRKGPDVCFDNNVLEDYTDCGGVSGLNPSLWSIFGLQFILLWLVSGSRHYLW

[4] = [3H]prazosin, cloned human receptor, LM(tk-) cell membranes, mean, read-out: PKi alpha-1 1a (converted)
[5] = cloned human receptor, LM(tk-) cell membranes, mean, read-out: PKi alpha-1 1c (converted)
[6] = [3H]nitrendipine, rat cardiac muscle membranes, mean, read-out: PKi Ca (converted)
[7] = [3H]prazosin, cloned human receptor in LM(tk-) cell membranes, SEM and n in lines below
[8] = cloned human receptor in LM(tk-) cell membranes, SEM and n in lines below
[9] = [3H]nitrendipine, rat cardiac muscle membranes, SEM and n in lines below
[10] = [3H]prazosin, cloned human α1A receptor, LM(tk−) cell membranes
[11] = cloned human α1C receptor, LM(tk−) cell membranes
[12] = [3H]nitrendipine, rat cardiac muscle membrane fragments, L-type calcium channel
[13] = [3H]prazosin, cloned human receptor in LM(tk-) cell membranes, SEM and n in lines below, read-out: pKi alpha-1 1a (converted)
[14] = cloned human receptor in LM(tk-) cell membranes, SEM and n in lines below, read-out: pKi alpha-1 1c (converted)
[15] = [3H]nitrendipine, rat cardiac muscle membranes, SEM and n in lines below, read-out: pKi Ca (converted)

CCC1=C(C(=O)NC)C(c2ccc([N+](=O)[O-])cc2)C(C(=O)NCCCN2CCC(C(=O)OC)(c3ccccc3)CC2)=C(COCCN)N1 (stereo not shown) [Example 229, 2-((2-Aminoethyl)oxy)methyl-6-ethyl-1,4-dihydro-3-(N-(3-(4-methoxycarbonyl-4-phenylpiperidin-1-yl)propyl))carbo xamido-5-N-methylcarboxamido-4-(4-nitro)phenylpyridine]
Ki [1, 4]: 4.17 µM | Ki [2, 5]: 0.00708 µM | Ki [3, 6]: 100 µM | melting point: 95 °C (dec.)

CCC1=C(C(=O)NCCCCN2CCC(c3ccccc3)CC2)C(c2ccc([N+](=O)[O-])cc2)C(C(N)=O)=C(C)N1.Cl.O (stereo not shown) [Example 77, 5-Carboxamido-2-ethyl-1,4-dihydro-6-methyl-4-(4-nitro)phenyl-3-(N-(4-(4-phenylpiperidin-1-yl)butyl))carboxamidopyridine hydrochloride hydrate]
pKi alpha-1 1a [1, 7]: 6.83 | pKi alpha-1 1c [2, 8]: 8.30 | pKi Ca [3, 9]: 5.94

CCC1=C(C(N)=O)C(c2ccc([N+](=O)[O-])cc2)C(C(=O)NC2CCN(CCc3c[nH]c4ccccc34)CC2)=CN1CC (stereo not shown) [Example 122, 5-Carboxamido-1,4-dihydro-3-(N-{1-[2-(3-indolyl)ethyl]piperidin-4-yl}) carboxamido-1,6-diethyl-4-(4-nitrophenyl)pyridine]
pKi alpha-1 1a [1, 10]: 6.62 | pKi alpha-1 1c [2, 11]: 7.71 | pKi Ca [3, 12]: 3

COC(=O)C1=C(C)NC(C)=C(C(=O)OCCCN2CCC(c3ccccc3)CC2)C1c1ccc([N+](=O)[O-])cc1 (stereo not shown) [Example 48, 1,4-Dihydro-5-methazycarbonyl-2,6-dimethyl-4-(4-nitrophenyl)-3-[3-(4-phenylpiperidin-1-yl)propoxy]}carbonylpyridine hydrochloride hydrate]
Ki [1, 13]: 0.00977 µM | Ki [2, 14]: 0.000525 µM | Ki [3, 15]: 0.479 µM

COC(=O)C1=C(C)NC(C)=C(C(=O)NCCCN2CCCCC2)C1c1ccc([N+](=O)[O-])cc1 (stereo not shown) [Example 51, 1,4-Dihydro-3-methoxycarbonyl-2,6-dimethyl-4-(4-nitrophenyl)-5-{N-[3-(piperidin-1-yl)propyl]}carboxamidopyridine hydrochloride etherate]
Ki [1, 13]: 9.77 µM | Ki [2, 14]: 0.479 µM | Ki [3, 15]: 1000 µM

CC1=C(C(N)=O)C(c2ccc([N+](=O)[O-])cc2)C(C(=O)NC2CCN(Cc3ccccc3)CC2)=C(c2ccoc2)N1.Cl.O (stereo not shown) [Example 66]
pKi alpha-1 1a [1, 7]: 5.45 | pKi alpha-1 1c [2, 8]: 6.59 | pKi Ca [3, 9]: 6.22

COC(=O)C1=C(C)NC(C)=C(C(=O)NCCCN2CCC(c3ccccc3)CC2)C1c1ccc([N+](=O)[O-])cc1 (single isomer, unassigned; (-)) [(−)-45, 1,4-Dihydro-3-methoxycarbonyl-2,6-dimethyl-4-(4-nitrophenyl)-5-{N-[3-(4-phenylpiperidin-1-yl)propyl]}carboxamidopyridine hydrochloride hemihydrate]
Ki [1, 13]: 0.0407 µM | Ki [2, 14]: 0.000182 µM | Ki [3, 15]: 4.37 µM

CCC1=C(C(=O)NCCCN2CCC(c3ccccc3)CC2)C(c2ccc([N+](=O)[O-])cc2)C(C(=O)OC)=C(C)N1 (stereo not shown) [Example 74, 2-Ethyl-1,4-dihydro-5-methoxycarbonyl-6-methyl-4-(4-nitro)phenyl-3-(N-(3-(4-phenylpiperidin-1-yl)propyl)) carboxamidopyridine hydrochloride hydrate]
Ki [1, 13]: 0.0589 µM | Ki [2, 14]: 0.000501 µM | Ki [3, 15]: 5.25 µM

CCC1=C(C(N)=O)C(c2ccc([N+](=O)[O-])cc2)C(C(=O)NCCCN2CCC(C(=O)OC)(c3ccccc3)CC2)=C(COCCN)N1 (stereo not shown) [Example 234, 2-((2-Aminoethyl)oxy)methyl-5-carboxamido-6-ethyl-1,4-dihydro-3-(N-(3-(4-methoxycarbonyl-4-phenylpiperidin-1-yl)propyl)) carboxamido-4-(4-nitro)phenylpyridine]
Ki [1, 4]: 2.75 µM | Ki [2, 5]: 0.00162 µM | Ki [3, 6]: 398 µM

CCOC(=O)C1=C(CNCCCN2CCC(c3ccccc3)(c3ccccc3)CC2)NC(C)=C(C(=O)OC)C1c1ccc([N+](=O)[O-])cc1.Cl.O (stereo not shown) [Example 90, 3-Ethoxycarbonyl-1,4-dihydro-5-methoxycarbonyl-6-methyl-4-(4-nitro)phenyl-2-(N-(3-(4,4,-diphenylpiperidin-1-yl)propyl)amino)methylpyridine, hydrochloride hydrate]
pKi alpha-1 1a [1, 10]: 6.52 | pKi alpha-1 1c [2, 11]: 7.56 | pKi Ca [3, 12]: 6.63

COC(=O)C1=C(C)NC2=C(C(=O)N(CCCN3CCC(c4ccccc4)(c4ccccc4)CC3)C2)C1c1ccc([N+](=O)[O-])cc1.Cl.O (stereo not shown) [Example 91, 1,4,7,7-Tetrahydro-3-methoxycarbonyl-6-methyl-5-oxo-4-(4-nitrophenyl)-6-(3-(4,4-diphenylpiperidin-1-yl)) propylpyrrolo[3,4-b]pyridine, hydrochloride hydrate]
pKi alpha-1 1a [1, 10]: 6.29 | pKi alpha-1 1c [2, 11]: 8.04 | pKi Ca [3, 12]: 6.55

COc1cc2c(cc1OC)CN(CCCNC(=O)C1=C(C)NC(C)=C(C(N)=O)C1c1ccc([N+](=O)[O-])cc1)CC2 (stereo not shown) [Example 58, 5-Carboxamido-1,4-dihydro-3-{N-[3-(1,2,3,4-tetrahydro-6,7-dimethoxyisoquinolin-2-yl)propyl]}carboxamido-2,6-dimethyl-4-(4-nitrophenyl)pyridine hydrochloride]
Ki [1, 13]: 3.02 µM | Ki [2, 14]: 0.331 µM | Ki [3, 15]: 166 µM

CCC1=C(C(N)=O)C(c2ccc([N+](=O)[O-])cc2)C(C(=O)NCCCN2CCC(O)(c3ccccc3)CC2)=CN1CC.Cl.O (stereo not shown) [Example 101, 5-Carboxamido-1,6-diethyl-1,4-dihydro-3-{N-[3-(4-hydroxy-4-phenylpiperidin-1-yl)propyl]}carboxamido-4-(4-nitrophenyl)pyridine hydrochloride hydrate]
pKi alpha-1 1a [1, 10]: 5.86 | pKi alpha-1 1c [2, 11]: 8.54 | pKi Ca [3, 12]: 3

COC(=O)C1=C(C)NC(C)=C(C(=O)NCCCCN2CCC(c3ccccc3)(c3ccccc3)CC2)C1c1ccc([N+](=O)[O-])cc1.Cl.O (stereo not shown) [Example 53, 1,4-Dihydro-3-methoxycarbonyl-2,6-dimethyl-4-(4-nitrophenyl)-5-{N-[4-(4,4-diphenylpiperidin-1-yl)butyl]}carboxamidopyridine hydrochloride hydrate]
pKi alpha-1 1a [1, 7]: 6.49 | pKi alpha-1 1c [2, 8]: 7.83 | pKi Ca [3, 9]: 5.54

5-Acetyl-1,4-dihydro-2,6-dimethyl-4-(4-nitrophenyl)-3-[3-(4,4-diphenylpiperidin-1-yl)propoxy]carbonylpyridine hydrochloride hemihydrate [Example 49]
pKi alpha-1 1a [1]: 6.94 | pKi alpha-1 1c [2, 8]: 8.56 | pKi Ca [3]: 5.37
